Patent US20250305004A1, “ENHANCING GENE TARGETING EFFICIENCY IN HUMAN CELLS WITH DNA-PK INHIBITOR TREATMENT” (The Board of Trustees of the Leland Stanford Junior …, priority 2022, published 2025)
“Also recorded” adds a separate entry of the source.

Assays:
[1] = system: TRAC gene locus in T cells; conditions: 0.5 μM; AAV6 MOI 1250 and 2500
Description: (§1) (FIG. 34d). Next, we tested the effect of compound treatment when titrating down the AAV6 donor amounts for gene targeting at the CCR5 locus. […] For this, we assessed the CD19-CAR knock-in at the TRAC gene locus in T cells using a previously reported gene editing strategy^87 (FIG. 14c).

[2] = system: T cells; experiment: Viable cell count of CCR5 gene targeted T cells; assay type: cell-based, human
Description: as §1
(§2) Cell viability measurement. MTT assay was used for measuring the gene edited PSC viability. […] After this incubation, MTT was removed, and cells were lysed using 100 μl of lysis buffer (0.1N HCl and 0.5% SDS in isopropanol). After lysis, absorbance was measured at 570 nm with 650 nm as the reference using a SpectraMax M3 plate reader (Molecular devices). The absorbance values were used to calculate the cell viability of gene edited cells as a percentage relative to the mock cells. […] Viable cell counts were represented as percentage relative to the mock or untreated cells as indicated.

[3] = system: top off-target sites of HBB, CCR5 and HBA1 gRNAs in HSPCs; experiment: NGS off-target analysis in gene targeted HSPCs; assay type: cell-based, human
Description: For this, we assessed the previously characterized top off-target site for CCR5 (OT39)^66, HBB (OT1)^72 and HBA1 (OT1)74 gRNAs in the gene targeted HSPCs using next generation sequencing (NGS). […] Blocking of specific off-target breaks is possible, however, if there were biologically important reasons to do so^79, 80. […] Thus, gene editing with AZD treatment increases the frequency alleles with WT sequence and deletion INDELs without the HDR donor template.
NGS analysis for off-target effects. For this, we used commercially available Amplicon-EZ next generation sequencing service from AZENTA, Inc. Previously characterized top off-target site for CCR5 (OT39), HBB (OT1) and HBA1 (OT1) gRNAs were analyzed. PCR was used to amplify a 350-450 bp region encompassing the off-target sites from genomic DNA of the gene targeted HSPCs. Following are the primers used for PCR,
Following PCR, the amplicons were purified using Genejet PCR purification kit (Thermo Fisher Scientific, cat: K0701). The samples were normalized to a concentration of 20 ng/μl and 25 μl volume was submitted for Amplicon-EZ NGS service (AZENTA, Inc). DNA library preparations, sequencing reactions, and bioinformatics analysis were conducted at AZENTA, Inc. DNA Library Preparation was done using NEBNext Ultra DNA Library Prep kit following the manufacturer's recommendations (NEB). […] DNA libraries were validated on the Agilent TapeStation (Agilent Technologies) and were quantified using Qubit 2.0 Fluorometer (Invitrogen) and multiplexed in equal molar mass. […] The raw Illumina reads were checked for adapters and quality via FastQC. The raw Illumina sequence reads were trimmed of their adapters and nucleotides with poor quality using Trimmomatic v.0.36. Paired sequence reads were then merged to form a single sequence if the forward and reverse reads were able to overlap. The merged reads were aligned to the reference sequence and variant detection was performed using AZENTA proprietary Amplicon-EZ program. INDEL frequency at the target site was quantified and plotted as the frequency of reads with insertions and deletions.

[4] = system: HBB locus in HSPCs; experiment: Editing of SCD mutation at HBB locus in HSPCs (AAV6 or ssODN donor); assay type: cell-based, human
Description: ICE analysis for quantification of gene editing.
CD34+ HSPC culture and genome editing.

[5] = system: CCR5 locus in B cells; experiment: RNP/AAV6 gene targeting at CCR5 locus in B cells; assay type: cell-based, human; conditions: different concentrations (4, 2, 1, 0.5 and 0.1 μM); ddPCR
Description: B cell culture and genome editing. […] B cells were cultured at 37° C., 5% CO2, and ambient oxygen levels.
For genome editing, gRNA targeting CCR5 was complexed with Cas9 protein were complexed at a 2.5:1 ([…]) molar ratio at room temperature for 20 min. […] Cells were then replated at 1 million cells/ml in complete B cell activation media. […] Gene targeting was assessed at 3-days post-editing.

[6] = system: CCR5 locus in PSCs; experiment: Single cell cloning of PSCs gene targeted at CCR5 locus; assay type: cell-based, human
Description: Allelic gene targeting efficiency was unaffected by pretreatment with AZD7648 with or without post treatment when compared to the corresponding controls.
For single cell cloning, gene targeted PSCs were plated at a density of 250 cells per well of a 6-well plate in mTeSR1 medium supplemented with 1× CloneR™2 ([…] technologies, cat: 100-0691) and incubated at 37° C. for 2 days. After 2 days, medium was switched to fresh mTeSR1 medium supplemented with 1× CloneR™2. 2 days later, the cells were switched to and maintained in mTeSR1 medium with daily media changes. At D7-D10, single cell colonies were picked by scraping and were then propagated individually. Gene targeting was assessed in single cell clones by ddPCR as mentioned above and by PCR amplifying the region spanning the knock-in to determine the frequency of mono-, bi-allelic and non-targeted clones.

[7] = system: HSPCs; experiment: Colony forming units (CFU) assay and genotyping of CCR5 gene targeted HSPCs; assay type: cell-based, human; conditions: for colonies with bi-allelic HDR knock-in: untreated 9%
Description: Colony forming units assay and genotyping of clones. For colony forming units (CFU) assay, 250 to 500 HSPCs were plated in SmartDish 6-well plates ([…] Technologies, cat: 27370) containing MethoCult H4434 Classic ([…] Technologies, cat: 04444). After 14 days, colonies were counted and scored using STEMvision automated counter ([…] Technologies) to determine the number of BFU-E, CFU-M, CFU-GM, and CFU-GEMM colonies. To determine the ratio of monoallelic vs biallelic integration, individual colonies of each type were picked and genomic DNA was extracted with QE. ddPCR was used to determine the clones with mono- vs bi-allelic integration as mentioned. WT and INDEL frequencies in the clones were determined using ICE analysis.

[8] = system: HSPCs; conditions: 72 h post-gene targeting at CCR5, HBA1 and HBB loci; 0.5 μM
Description: as §2

[9] = system: PI3K family of kinases; experiment: Western blot, phosphorylation of AKT (Ser473) by PI3K family kinases in PSC; assay type: cell-based, human; conditions: 2 h

## Cc1cc2ncnn2cc1Nc1ncc2c(n1)n(C1CCOCC1)c(=O)n2C [AZD7648, 7-methyl-2-((7-methyl-[1,2,4]triazolo[l,5-a]pyridin-6-yl)amino)-9-(tetrahydro-2H-pyran-4-yl)-7,9-dihydro-8H-purin-8-one]
[1]
  increase in frequency of CD19-CAR+ T cells vs untreated: 1.4 fold
[2]; 0.5 μM, different AAV6 MOIs
  viable cell count: very little drop in viable cell count
[2]; 72 h post-gene targeting, different concentrations
  viable cell count vs mock and untreated controls: minimal drop in viable cell count
[3]; OT1 site for HBA1 gRNA, untreated […]
  reads with INDELs at off-target site: around 0.5%
[3]; OT1 site for HBB gRNA, 0.5 μM, untreated 1%
  reads with INDELs at off-target site: about 3%
[3]; OT39 site for CCR5 gRNA, untreated below detection limit
  reads with INDELs at off-target site: 0.03%
[4]; AAV6 donor, 0.5 μM
  INDELs after gene targeting: almost no INDELs; also recorded: nearly INDEL-free levels
[4]; ssODN donor […], AZD7648 0.5 μM, untreated 49%
  gene targeting frequency: 65%
[5]
  enhancement of gene targeting: about 2 fold
[6]; 0.1 μM
  clones with bi-allelic knock-in: 60%
[6]; 0.5 μM, untreated 30%
  clones with bi-allelic knock-in: 90%
[7]; 0.5 μM
  total colony number and colony type distribution: did not cause further decrease in total colony number nor a change in the colony type distribution
[7]; BFU-E and CFU-GM, 0.5 μM
  increase of colonies with bi-allelic HDR knock-in: more than 7 fold
[7]; BFU-E
  colonies with bi-allelic HDR knock-in: 67%
[7]; CFU-GM
  colonies with bi-allelic HDR knock-in: 78%
[8]
  viable cell count vs mock cells: only a small drop in viable cell count
[9]
  phosphorylation of AKT (Ser473): did not affect the phosphorylation of AKT
